Assay results from BindingDB's records for doi:10.3109/14756360903213481 (Brno University of Technology, 2010).

Experiments:
[1] = target: Acetylcholinesterase (Electrophorus electricus, UniProt O42275); experiment: Acetylcholinesterase Inhibition Assay; details: pH 8; 30 °C
Description: (§1) The assay was carried out according to the Ellman method [Ellman et al., Biochem. Pharmacol., 7:88-95], optimized for 96-well microplates using a Tecan Sunrise™ absorbance reader. […] For the blank, 50 μL of 0.26 U mL^−1 AChE was replaced by the same volume of 0.1 M phosphate buffer pH 8.0. In a typical assay, solutions of AChE, DTNB, and the compound to be tested, as well as the phosphate buffer, were mixed and incubated for 30 min at 30°C. Next, the reaction was started by the addition of ATCI solution. […] Reaction velocities were determined from the slopes of the linear portions of the graphs of time versus concentration of 5-thio-2-nitrobenzoate. All assays were done in triplicate.

[2] = target: Carboxylic ester hydrolase (Equus caballus, UniProt Q9N1N9); experiment: Acetylcholinesterase Inhibition Assay; details: pH 8; 30 °C
Description: as §1

Carboxylic ester hydrolase, sequence (Q9N1N9 whole entry): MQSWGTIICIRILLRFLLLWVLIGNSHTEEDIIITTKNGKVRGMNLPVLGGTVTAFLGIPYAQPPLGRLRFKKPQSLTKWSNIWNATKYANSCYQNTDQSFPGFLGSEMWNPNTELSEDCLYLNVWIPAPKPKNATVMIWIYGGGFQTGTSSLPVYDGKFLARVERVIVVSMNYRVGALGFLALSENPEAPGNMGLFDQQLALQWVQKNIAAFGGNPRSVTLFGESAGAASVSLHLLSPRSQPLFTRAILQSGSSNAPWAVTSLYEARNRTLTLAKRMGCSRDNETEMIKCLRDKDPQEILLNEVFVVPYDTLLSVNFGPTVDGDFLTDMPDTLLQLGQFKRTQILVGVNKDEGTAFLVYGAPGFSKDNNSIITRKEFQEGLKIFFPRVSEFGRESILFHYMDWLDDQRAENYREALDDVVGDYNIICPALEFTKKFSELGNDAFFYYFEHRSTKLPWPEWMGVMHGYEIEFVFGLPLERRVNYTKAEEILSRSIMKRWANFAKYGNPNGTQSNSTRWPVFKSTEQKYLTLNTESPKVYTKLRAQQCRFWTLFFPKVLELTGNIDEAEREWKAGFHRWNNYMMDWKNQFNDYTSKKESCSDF
Acetylcholinesterase, sequence (O42275 whole entry): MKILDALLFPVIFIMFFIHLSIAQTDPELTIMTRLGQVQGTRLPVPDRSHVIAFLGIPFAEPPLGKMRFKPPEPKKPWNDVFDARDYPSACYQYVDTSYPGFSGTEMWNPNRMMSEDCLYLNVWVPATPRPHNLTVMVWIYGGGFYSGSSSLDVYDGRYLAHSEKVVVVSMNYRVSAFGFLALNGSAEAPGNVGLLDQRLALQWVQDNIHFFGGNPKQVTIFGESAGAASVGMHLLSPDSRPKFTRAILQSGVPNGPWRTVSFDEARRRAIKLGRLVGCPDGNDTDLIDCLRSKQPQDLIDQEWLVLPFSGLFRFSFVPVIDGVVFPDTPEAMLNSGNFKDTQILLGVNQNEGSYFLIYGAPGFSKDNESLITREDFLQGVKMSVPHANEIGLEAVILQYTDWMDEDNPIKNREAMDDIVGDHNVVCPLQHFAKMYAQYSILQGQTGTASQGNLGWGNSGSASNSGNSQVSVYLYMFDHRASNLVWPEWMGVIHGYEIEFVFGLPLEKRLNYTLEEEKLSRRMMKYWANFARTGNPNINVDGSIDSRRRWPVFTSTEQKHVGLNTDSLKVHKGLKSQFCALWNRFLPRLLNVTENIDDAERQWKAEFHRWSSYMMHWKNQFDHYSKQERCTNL

Compound	IC50 [1]	IC50 [2]
O=C1C(Cc2ccc(O)cc2)=C(Cc2ccc(O)cc2)C(=O)C1(c1ccc(O)cc1)C1(c2ccc(O)cc2)C(=O)C(Cc2ccc(O)cc2)=C(Cc2ccc(O)cc2)C1=O [Nostotrebin 6]	5.5 µM	6.8 µM
COc1ccc2c3c1O[C@H]1C[C@@H](O)C=C[C@@]31CCN(C)C2 [galantamine]		23.3 µM
